Here are results for three compounds from US20250179028A1, “ACRYLAMIDE COMPOUNDS” (NRG THERAPEUTICS LTD, priority 2022, published 2025).

The nature of data set [1]: PBS and FaSSIF solubility. The class given is physicochemical. Particulars: aqueous buffer, kinetic from dmso stock; PBS pH 7.4, 2 hr at 25° C.; read-out: Solubility PBS (pH 7.4). The method in brief: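 Solubility was measured from 10 mM DMSO stocks diluted into FaSSIF or PBS pH 7.4, in duplicate, then shaken at 1100 rpm for 2 hr at 25 °C. Filtrates were quantified by LC-MS/MS against an internal standard and a known-concentration standard.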

A short description of data set [2]: Microsomal clearance assay. It counts as in vitro ADME. Particulars: rat liver microsomes; average value from two experiments. The method, then:
The microsomal stability of test compounds was evaluated using rat liver microsomes (BiolVT) with and without the cofactors nicotinamide adenine dinucleotide phosphate (NADPH) and undine-diphosphate-glucuronic acid (UDPGA). Reactions were performed in a final volume of 250 μl pre-warmed (37° C.) 100 mM phosphate buffer containing 5 mM MgCl2, 0.025 mg/ml alamethicin, and 0.5 mg/ml rat liver microsomes. NADPH and UDPGA were included at 1 mM and 2 mM respectively, where appropriate. Reactions were started with the addition of 1 μM (final concentration) test compound. Verapamil was used as the positive control. Solutions were incubated in a water bath at 37° C. and aliquots collected at 0.5, 5, 15, 30 and 60 min. Reactions were stopped by the addition of 5 volumes of cold acetonitrile with internal standards (200 nM caffeine and 100 nM tolbutamide). Samples were centrifuged at 3220 g for 40 min. An aliquot of supernatant was diluted 1:1 In ultra-pure H2O, then used for LC-MS/MS analysis. Peak areas were determined from extracted ion chromatograms. The slope value, k, was determined by linear regression of the natural logarithm of the remaining percentage of the parent drug vs. incubation time curve. The in vitro half-life (in vitro t½) was determined from the slope value: in vitro t½=0.693/k. Conversion of the in vitro t½ (min) into the in vitro intrinsic clearance (in vitro CLint, in μL/min/mg protein) was done using the following equation (mean of duplicate determinations): […]
(In general: Liver microsomes are a subcellular fraction often used to study metabolism.)

In data set [3] the target is CYP2D6 (Homo sapiens (Human), UniProt P10635). Description: Cytochrome P450 CYP2D6 inhibition in human liver microsomes. It counts as in vitro ADME. Particulars: probe dextromethorphan 2 µM (dextrorphan formation); 1 uM test compound, human liver microsomes; average value from two experiments; negative values = no effective inhibition. The method in brief: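 Human liver microsomes (0.2 mg/mL) with 2 μM dextromethorphan in 100 mM PBS, test compound at 1 μM or 0.1-30 μM, 15 min preincubation then NADPH-started reaction for 20 min at 37° C, in duplicate. Dextrorphan formation by UPLC-MS/MS; IC50 from % decrease versus uninhibited control.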
Sequence of CYP2D6 (P10635 whole entry): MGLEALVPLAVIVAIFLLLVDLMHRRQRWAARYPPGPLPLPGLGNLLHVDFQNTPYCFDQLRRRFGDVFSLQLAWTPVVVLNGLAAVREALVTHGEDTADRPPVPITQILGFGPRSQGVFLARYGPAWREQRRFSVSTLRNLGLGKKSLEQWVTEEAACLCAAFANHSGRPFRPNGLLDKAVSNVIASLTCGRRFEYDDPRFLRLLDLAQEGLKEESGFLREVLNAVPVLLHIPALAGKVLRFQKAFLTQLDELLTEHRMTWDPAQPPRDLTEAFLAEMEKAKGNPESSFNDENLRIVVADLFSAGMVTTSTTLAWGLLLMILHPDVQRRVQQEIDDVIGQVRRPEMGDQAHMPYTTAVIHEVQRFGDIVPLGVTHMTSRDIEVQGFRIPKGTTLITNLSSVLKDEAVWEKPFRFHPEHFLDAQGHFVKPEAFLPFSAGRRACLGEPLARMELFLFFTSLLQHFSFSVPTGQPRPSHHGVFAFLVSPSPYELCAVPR

The subject of data set [4] is mPTP. As to the kind of experiment: mPTP activity (Ca2+ retention) assay in isolated rat liver mitochondria. Particulars: isolated rat liver mitochondria; average value from multiple experiments (n ≥ 2). The class given is biochemical. The method in brief: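 Freshly isolated female Sprague Dawley rat liver mitochondria were energised with succinate and rotenone in pH 7.4 buffer with Fluo5N, then pre-incubated 10 min at RT with compound (30 μM to 1 nM final) before a 75 μM CaCl2 bolus. The IC50 used 10-min fluorescence, normalised to DMSO and 5 μM cyclosporin A.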

SMILES strings stand for the structures. In brackets after ≈: the same amount, converted by molar mass.

As for `Cc1c(F)cccc1NC(=O)/C=C/c1ccc2nn[nH]c2c1` [Example 1, (E)-3-(1H-benzo[d][1,2,3]triazol-6-yl)-N-(3-fluoro-2-methylphenyl)acrylamide], the solubility at 2 h in data set [1] was found to be 22.2 µM (≈ 6.58 µg/mL). In data set [2], this compound displayed a microsomal CLint at 1 µM of 106 µL/min/mg. Moreover, in data set [3], the inhibition at 20 min, 1 µM was -2.11%. In addition, the “mPTP Rat liver pIC50” value in data set [4] is on record as 7.3.
With `Cc1c(F)cccc1NC(=O)/C=C/c1cc(F)c2c(c1)NC(=O)C2` [Example 18, (E)-N-(3-fluoro-2-methylphenyl)-3-(4-fluoro-2-oxoindolin-6-yl)acrylamide], in data set [1], the solubility at 2 h worked out at 1.11 µM (≈ 0.364 µg/mL). Besides, in data set [2], the microsomal CLint at 1 µM is 23 µL/min/mg. For the same compound, the inhibition at 20 min, 1 µM in data set [3] came to 1.2%. The “mPTP Rat liver pIC50” value in data set [4] stood at 6.0.
In the same order, the values of `CC1Cc2ccccc2C1NC(=O)/C=C/c1ccc2c(c1)NC(=O)C2` (stereo not drawn) [Example 21, (E)-N-(2-methyl-2,3-dihydro-1H-inden-1-yl)-3-(2-oxoindolin-6-yl)acrylamide] are 26 µM (≈ 8.64 µg/mL), 38 µL/min/mg, 0.91% and 6.1.

As a reminder, the solubility is the concentration that dissolves in the medium under given conditions. A word on the microsomal CLint: it is a measure of how fast metabolising enzymes remove a compound, apart from limits set by blood flow. The low end stands for slow turnover, the high end for rapid turnover. As a reminder, the inhibition is the drop in the measured response relative to a control, in per cent.
